Measured values published in patent publication US20110152166A1, “METHOD OF MODULATION OF PROTEIN PHOSPHORYLATION-DEPENDENT CONFORMATIONAL TRANSITIONS WITH LOW MOLECULAR WEIGHT COMPOUNDS” (priority 2006, published 2011).
Numbering of substitutions follows the chain as printed. Where two headings read alike, the source gives them in different places. Ends that are not written are not given here.

How the values were obtained:
Test in all cases: PDK1 activity assay with T308tide
Format in all cases: biochemical
GST-PDK1 [Lys115Met] = target: T1, GST-PDK1 [Lys115Met] (Homo sapiens, UniProt O15530, K115M)
T1 construct: different protein constructs, comprising the full length protein or the catalytic domain alone; made in house; host or cells: HEK293 cells (pEBG-2T-PDK1 mutant)
T1 sequence (O15530 whole entry K115M, the tested form may be a part): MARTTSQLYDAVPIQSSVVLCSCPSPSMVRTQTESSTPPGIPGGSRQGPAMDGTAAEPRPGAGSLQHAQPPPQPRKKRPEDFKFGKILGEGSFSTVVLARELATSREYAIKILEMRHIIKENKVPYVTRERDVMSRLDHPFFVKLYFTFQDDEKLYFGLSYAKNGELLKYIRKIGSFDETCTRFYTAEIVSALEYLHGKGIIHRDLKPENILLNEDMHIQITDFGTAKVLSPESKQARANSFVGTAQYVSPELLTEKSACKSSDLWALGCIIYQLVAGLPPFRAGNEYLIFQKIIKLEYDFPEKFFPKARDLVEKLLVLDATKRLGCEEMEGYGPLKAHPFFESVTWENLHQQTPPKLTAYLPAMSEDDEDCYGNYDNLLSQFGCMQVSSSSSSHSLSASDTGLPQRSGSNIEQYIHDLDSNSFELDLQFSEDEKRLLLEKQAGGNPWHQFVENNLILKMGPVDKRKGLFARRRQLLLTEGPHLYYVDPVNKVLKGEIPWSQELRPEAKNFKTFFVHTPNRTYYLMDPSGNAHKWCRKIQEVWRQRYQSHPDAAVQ

GST-PDK1 [Ser135Ala] = target: T2, GST-PDK1 [Ser135Ala] (Homo sapiens, UniProt O15530, S135A)
T2 construct: different protein constructs, comprising the full length protein or the catalytic domain alone; made in house; host or cells: HEK293 cells (pEBG-2T-PDK1 mutant)
T2 sequence (O15530 1-556 S135A): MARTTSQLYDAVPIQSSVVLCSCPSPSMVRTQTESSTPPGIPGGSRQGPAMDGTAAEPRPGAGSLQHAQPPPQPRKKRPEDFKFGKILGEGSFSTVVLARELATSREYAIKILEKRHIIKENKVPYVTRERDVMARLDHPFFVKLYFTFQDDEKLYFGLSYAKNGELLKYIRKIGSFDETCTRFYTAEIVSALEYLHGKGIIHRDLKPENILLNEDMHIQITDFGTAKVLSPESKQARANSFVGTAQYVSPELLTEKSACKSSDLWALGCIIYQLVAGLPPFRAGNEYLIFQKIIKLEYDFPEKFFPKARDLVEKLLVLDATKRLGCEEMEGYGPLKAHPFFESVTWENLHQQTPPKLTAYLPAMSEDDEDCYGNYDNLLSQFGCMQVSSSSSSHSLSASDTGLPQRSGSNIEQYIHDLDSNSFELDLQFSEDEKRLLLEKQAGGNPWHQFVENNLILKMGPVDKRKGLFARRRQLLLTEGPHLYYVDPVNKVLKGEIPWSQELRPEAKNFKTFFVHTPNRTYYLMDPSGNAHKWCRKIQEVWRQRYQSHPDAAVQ

GST-PDK1 [Leu155Glu] = target: T3, GST-PDK1 [Leu155Glu] (Homo sapiens, UniProt O15530, L155E); settings: for AC50: GST-PDK1 [Leu155Glu]
T3 construct: different protein constructs, comprising the full length protein or the catalytic domain alone; made in house; host or cells: HEK293 cells (pEBG-2T-PDK1 mutant)
T3 sequence (O15530 1-556 L155E): T2 sequence (O15530 1-556 S135A) with A135S, L155E

GST-PDK1 [Leu155Ser] = target: T4, GST-PDK1 [Leu155Ser] (Homo sapiens, UniProt O15530, L155S); settings: for AC50: GST-PDK1 [Leu155Ser]
T4 construct: different protein constructs, comprising the full length protein or the catalytic domain alone; made in house; host or cells: HEK293 cells (pEBG-2T-PDK1 mutant)
T4 sequence (O15530 1-556 L155S): T2 sequence (O15530 1-556 S135A) with A135S, L155S

Compound: O=C(O)CSC(CC(=O)c1ccc(Cl)cc1)c1ccccc1 (stereo not drawn) [Compound 1]
- AC50 (GST-PDK1 [Lys115Met]; read-out: AC50): > 200 µM
- AC50 (GST-PDK1 [Ser135Ala]): 109 ± 33 µM
- Max. activity (GST-PDK1 [Ser135Ala]): 2.82 ± 0.4 U/mg
- AC50 (GST-PDK1 [Leu155Glu]): No Effect
- activation of PDK1 mutant (in words) (GST-PDK1 [Leu155Glu]; Leu155 replaced with Glu, constitutively active): could not be further activated
- AC50 (GST-PDK1 [Leu155Ser]): No Effect
- activation of PDK1 mutant (in words) (GST-PDK1 [Leu155Ser]; Leu155 replaced with Ser, constitutively active): could not be further activated

Compound: REPRILSEEEQEMFRDFDYIADWC [PIFtide, reference compound]
- AC50 (GST-PDK1 [Lys115Met]): No Effect
- AC50 (GST-PDK1 [Ser135Ala]): 0.18 ± 0.02 µM
- Max. activity (GST-PDK1 [Ser135Ala]): 3.4 ± 0.09 U/mg
- AC50 (GST-PDK1 [Leu155Glu]): No Effect
- AC50 (GST-PDK1 [Leu155Ser]): No Effect
